“Also recorded” adds a separate entry of the source.
Columns and labels:
AKT2 = AKT2 (Homo sapiens, UniProt P31751); experiment: Co-crystal structure in complex with AKT2; type: binding; details: 2.32 Å co-crystal structure with AKT2
[1] = system: angiogenesis in C57Bl/6J mice retinas; experiment: Neonatal retinal angiogenesis model in wild-type mice; type: in vivo, mouse (C57Bl/6J); details: for anti-angiogenic properties (overall conclusion): mouse retinas
Source text: (§1) For the retinal vascular network, quantification of the number of AV shunts per mouse was done manually. […] A custom own-lab made macro allowed automatic processing of the images, using the same processing and quantification parameters. Briefly, the brightness of the images was enhanced by modifying the pixel extreme values, which depends on the specific image histogram content. A Gaussian filter was applied to reduce the intensity in homogeneities. The filter order depended on the image resolution. Next, the threshold step was computed, based on a global threshold technique such as Otsu's method or Li's method, resulting in binary image. A median filter was then applied to eliminate potential local irregularities, which could cause false branching point detection. From the binary images, the vascular density was quantified (calculated as the ratio of pixels associated with the vessels divided by the total number of pixels in the image). For the other parameters, a skeleton of the images was first computed using ImageJ, then the total vascular length was quantified using the Measure Skeleton Length plug-in from ImageJ. The number of branch points was extracted from the Analyze Skeleton plug-in of ImageJ. All results were transferred to Microsoft Office Excel software and automatically rearranged using a lab custom-made program. As all images generated at each step of the processing were saved, a visual control was made to ensure that there were no aberrant results.
(§2) Statistical analysis was performed with Prism 7 software (GraphPad). For most of the experiments, 1-way ANOVA was used for multiple comparisons. Results are expressed as mean±SEM. For post hoc pairwise, the Dunnett's test was used. A value of *P<0.05, **P<0.01, ***P<0.001 or ****P<0.0001 denotes statistical significance. An in-group variation of around 15% in parameters related to blood vessel architecture changes has been previously observed by the inventors, therefore a difference between controls and mutant mice of around 20-30% was anticipated. It was therefore expected that a group of 8 mice per condition would reveal statistical differences.
(§3) Eyes were fixed in 4% paraformaldehyde (PFA) in PBS at room temperature for 10 min, retinas were dissected, post-fixed in 4% PFA in PBS at 4° C. overnight then processed for immunostaining. Retinas were permeabilized in PBS, 1% BSA and 0.5% Triton X-100 at 4° C. overnight, rinsed in PBS, washed twice in PBlec (PBS, pH 6.8, 1% Triton-X-100, 0.1 mM CaCl2, 0.1 mM MgCl2, 0.1 mM MnCl2), and then incubated in biotinylated Griffonia simplicifolia lectin (isolectin B4) (B-1205, Vector Laboratories, 1:50) in PBlec at 4° C. overnight. After 5 washes in PBS, samples were incubated with streptavidin Cy-3 (PA43001, Sigma-Aldrich, 1:100) and with a-SMA (clone 1A4) (F3777, Sigma-Aldrich) conjugated with FITC diluted in PBS, 0.5% BSA, and 0.25% X-100 at 4° C. for 2 h. After washing, flat whole-mount retinas were mounted in DAKO medium (S3023, Dako). Complete high-resolution 3-dimensional rendering of whole-mount retinas was acquired using Laser Scanning Microscope SP5 or SP8 (Leica).

[2] = Safety/toxicity profile in wild-type neonatal mice
Source text: C57Bl/6J pregnant females were provided by Janvier Labs. EngFlox/flox mice (Mahmoud et al., (2010), “Pathogenesis of arteriovenous malformations in the absence of endoglin”, Circulation Research. https://doi.org/10.1161/[…].109.211037) were crossed with Cdh5(PAC)-CreERT2 (12) to generate endothelial specific inducible Eng knockout. Animal housing and procedures were in accordance with the Dutch Government guidelines and directive 2010/63/EU of the European Parliament. All efforts were made to minimize the number of animals used and their suffering. The institutional Committee for Animal Welfare of Leiden University Medical Center (project number AVD1160020171628) approved all protocols. Male and female mice were used during the first postnatal week to study retinal angiogenesis.
Retinas were processed for immunofluorescence staining as described (Lebrin et al., (2010), “Thalidomide stimulates vessel maturation and reduces epistaxis in individuals with hereditary hemorrhagic telangiectasia”, Nature Medicine. https://doi.org/10.1038/nm.2131).

[3] = system: AKT kinase in Pi3Kα or PTEN mutant cells lines (e.g. MCF7, BT474 or LnCAP); details: similar cell line; cited from earlier work
[4] = system: AVM formation in Eng-iKO mice; experiment: Prevention of AVM formation in Eng-iKO mice (retinal vascular network); type: in vivo, mouse
Description: The Eng Flox/flox; cdh5-CreERT2 were injected with tamoxifen (50 μg) at P2 to […] once at P3, P4, P5 and P6. The same volume of vehicle was injected serving as control animals. Mice were then euthanized at P7 and retinas processed for immunofluorescence staining as described (Lebrin et al., as above).
(§4) The same volume of vehicle was injected serving as control animals. Mice were then euthanized at P7 and retinas processed for immunofluorescence staining as described (Lebrin et al., as above).
as §1, §2, §3

[5] = Pup lethality / adverse effects in Eng-iKO mice; type: in vivo
Description: The Eng Flox/flox; cdh5-CreERT2 were injected with tamoxifen (50 μg) at P2 to induce nearly […] The same volume of vehicle was injected serving as control animals. Mice were then euthanized at P7 and retinas processed for immunofluorescence staining as described (Lebrin et al., as above).
as §4

[6] = system: nosebleeds in HHT patients; details: HHT patients (Lebrin et al.); cited from earlier work
[7] = Pharmacokinetics (PK) profile in neonate mice; type: in vivo, mouse
Description: Terminal blood samples collected at 24 h and 48 h post injections were collected from each mouse under isoflurane anaesthesia for the preparation of plasma. 4 neonate mice were used per time point in the study. Blood was collected into EDTA coated microvettes (Sartsed) for plasma preparation. Blood was centrifuged at 2700×g for 10 minutes and approximately 30 to 40 μl plasma was removed and aliquoted into polypropylene tubes (two aliquots per animal). Plasma samples were stored at −80° C. until bioanalysis. VAD044 compound levels in plasma samples was determined by LC-MS/MS.

[8] = once at P4, 5 to 25 mg·kg-1, i.p

Sequence of AKT2 (P31751 whole entry): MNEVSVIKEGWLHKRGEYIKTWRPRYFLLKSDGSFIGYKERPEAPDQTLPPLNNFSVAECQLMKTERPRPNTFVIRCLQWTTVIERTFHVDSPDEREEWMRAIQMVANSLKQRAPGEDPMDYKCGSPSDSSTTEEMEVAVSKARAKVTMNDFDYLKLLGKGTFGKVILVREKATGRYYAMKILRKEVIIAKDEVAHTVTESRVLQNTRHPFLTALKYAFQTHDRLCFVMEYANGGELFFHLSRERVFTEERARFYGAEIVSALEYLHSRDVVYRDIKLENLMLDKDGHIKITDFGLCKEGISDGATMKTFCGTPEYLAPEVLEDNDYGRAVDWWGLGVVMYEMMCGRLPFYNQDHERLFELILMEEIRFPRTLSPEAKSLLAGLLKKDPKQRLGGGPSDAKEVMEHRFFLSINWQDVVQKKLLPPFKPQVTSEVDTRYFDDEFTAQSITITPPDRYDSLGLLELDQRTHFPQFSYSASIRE

CCCN1C(=O)COc2nc(-c3ccc([C@]4(N)C[C@](C)(O)C4)cc3)c(-c3ccccc3)cc21 [Compound 6]
binding site in co-crystal structure (AKT2): binds in an allosteric binding pocket

CCCCCCCCCCCCCCCCCCOP(=O)([O-])OC1CC[N+](C)(C)CC1 [Perifosine]
anti-angiogenic properties (overall conclusion) [1]: weak anti-angiogenic properties | vascular radial expansion ([1]; once at P4, 100 mg·kg-1): reduced vascular radial expansion | effect on angiogenesis ([1]; once at P4, 5 to 10 mg·kg-1): did not affect angiogenesis | number of branch points and vascular area of the retinal vascular bed ([1]; once at P4, 25 to 100 mg·kg-1): slight reduction | weight gain ([2]; injected once at P4, 50 mg·kg-1): delayed weight gain | pup mortality ([2]; injected once at P4, 100 mg·kg-1): induced important pup mortality | adverse effects ([2]; injected once at P4, 5 to 25 mg·kg-1): No adverse effects | cellular inhibitory activity on AKT [3]: uM range | prevention of AVM formation ([4]; Eng-iKO mice, 25 or 50 mg·kg-1 i.p at P3 and P5, or 10 mg·kg-1 daily P3 to P6): unable to prevent AVM formation | inhibition of angiogenesis in Eng-iKO mice ([4]; Eng-iKO mice, doses and injection schemes tested): did not inhibit angiogenesis | effects in shunt formation ([4]; HHT1 mouse model, 25 and 50 mg·kg-1): no significant effects | efficacy on shunt formation ([4]; injected every day at 10 mg·kg-1): trend for efficacy was observed but statistical significance was not achieved | pup death ([5]; daily intraperitoneal administration at 25 mg·kg-1): resulted in pup death

O=C1CCC(N2C(=O)c3ccccc3C2=O)C(=O)N1 (centres unmarked) [Thalidomide]
severity and frequency of nosebleeds [6]: reduce the severity and frequency of nosebleeds

Cn1ncc(Cl)c1-c1cc(C(=O)N[C@H](CN)Cc2ccc(F)c(F)c2)oc1Cl [Uprosertib]
anti-angiogenic properties (overall conclusion) [1]: potent inhibitor of angiogenesis; also recorded: potent antiangiogenic properties | number of branch points [1, 8]: marked decrease | radial expansion [1, 8]: slight decrease | vascular area [1, 8]: marked decrease | pups mortality ([5]; 5 mg·kg−1 injected twice at P3 and P6): high levels of pups mortality | pup death ([5]; Eng-iKO mice, 1 to 5 mg·kg−1 bodyweight): death of the majority of the pups | pup death ([5]; Eng-iKO mice, two injections at P3 and P5): death of the majority of the pups

CCN1C(=O)COc2nc(-c3ccc([C@]4(N)C[C@@H](O)C4)cc3)c(-c3ccccc3)cc21 [VAD044 free base, 6-(4-(1-amino-3-hydroxycyclobutyl)phenyl)-1-ethyl-7-phenyl-1H-pyrido[2,3-b][1,4]oxazin-2(3H)-one]
Cavg (effective concentration) [7]: 22.9 ng/mL
